Paper PMC3740138, “Bile acids induce apoptosis selectively in androgen-dependent and -independent prostate cancer cells” (PeerJ, 2013)
Blank lines part the entries; values can stand above or below the molecule they belong to.

Experiments:
caspase-3 [1] = test: Caspase-3 activity (Ac-DEVD-AFC cleavage) in PC-3 cell extracts; assay type: cell-based, human; conditions: PC-3, 24 h, 25–75 µM
Description: (§1) PC-3 and LNCaP cells were seeded in 6-well plates at densities of 400000 or 750000 cells per well, respectively, in 0.5 ml culture medium containing 2% stripped FBS and 24 h later they were exposed to various concentrations of LCA in fresh medium for another 24 h. Proteins were then extracted from harvested cells using 1× RIPA buffer (Millipore, Billerica, MA) containing 1× protease inhibitor cocktail, centrifuged at 13,000 g for 5 min at 4°C to remove cell debris, and frozen at −80°C overnight. Protein concentrations were then quantified using a BCA protein detection kit (Thermo Scientific, Waltham, MA). Caspase activities were determined using fluorogenic caspase substrates selective for either caspase-3 (5 µM Ac-DEVD-AFC), caspase-9 (10 µM Ac-LEHD-AFC) or caspase-8 (10 µM Ac-IETD-AFC) in 10 µg of extracted protein suspended in caspase reaction buffer (20 mM PIPES at pH 7.2, 30 mM NaCl, 10 mM DTT, 1 mM EDTA, 0.1% CHAPS, 10% sucrose). The time-dependent release of 7-amino-4-trifluoromethyl coumarin (AFC) was measured using a SpectroMax M5 microplate reader (Molecular Devices, Sunnydale, CA) at an excitation wavelength of 400 nm and an emission wavelength of 505 nm. Measurements were recorded at 2 min intervals for 90 min. A standard curve of AFC fluorescence was used to calculate the amount of AFC released (in picomoles) during each reaction.

[2] = tested on: PC-3 human prostate cancer cells; test: Extra/intracellular distribution by mass spectrometry, PC-3; assay type: in vitro ADME; conditions: for % of compound recovered, Cells / % of compound recovered, Medium: 24 h, mean ± SD
Description: (§2) Mass spectrometry-based analysis of LCA and UDCA was performed as previously reported ([Bourque & Titorenko, 2009]). […] The extracted lipids were dried under nitrogen and resuspended in chloroform. Immediately prior to injection the extracted lipids were combined with a 2:1 methanol:chloroform mixture supplemented with 0.1% (v/v) ammonium hydroxide. The sample was injected directly into a Thermo Orbitrap Velos equipped with a HESI-II ion source (Thermo Scientific, Waltham, MA, USA) at a flow rate of 5 µl/min. Spectra were obtained in negative-ion mode. The source voltage was set to 4.0 kV, a capillary temperature of 275°C, a sheath gas flow of 5 (arbitrary units) and an auxiliary gas flow of 1 (arbitrary units). Acquired spectra were exported from Xcalibur software (Thermo Scientific) and then deconvoluted and deisotoped using Excel macros.

[3] = tested on: LNCaP human prostate cancer cells; test: Extra/intracellular distribution by mass spectrometry, LNCaP; assay type: in vitro ADME; conditions: for % of compound recovered, Cells / % of compound recovered, Medium: LNCaP, 24 h, mean ± SD
Description: as §2

LNCaP cells [4] = test: Percentage of intact cells (Hoechst 33342 / propidium iodide counting), LNCaP; assay type: cell-based, human; conditions: for Concentrations decreasing cell viability / number of intact cells: 48 h, tested 10–500 µM; for Effect of caspase inhibitor on LCA-induced cell death: 24 h co-exposure, 40 µM LCA + 10 µM inhibitor
Description: (§3) For apoptotic and necrotic cell death measurements, LNCaP and PC-3 cells were seeded at densities of 1 × 10^5 and 0.5 × 10^5 cells/ml, respectively, in 24-well plates in 2% stripped-FBS. Cells were then treated with several concentrations of bile acids in the presence (LNCaP) or absence (PC-3) of 0.1 nM DHT. […] After a 15 min incubation at 37°C, cells were observed and counted under a Nikon Eclipse (TE-2000U) inverted fluorescent microscope at 20× magnification. […] To measure mitochondrial membrane potential (MMP), cells were treated with LCA for 1, 4 or 8 h, and tetramethylrhodamine ethyl ester (TMRE) was added to each well at a final concentration of 50 nM. TMRE is a cell permeable, positively charged dye that accumulates in active negatively charged mitochondria.
(§4) All experiments were performed in at least triplicate using cells after various passages and the data are presented as mean ± SEM. Statistically significant differences (p < 0.05) between various treatments and untreated cells were determined using a two-tailed Student t-test with Bonferroni correction for multiple comparisons. IC50 values for inhibition of cell viability were calculated using a sigmoidal curve-fitting model of log-inhibitor concentration versus normalized inhibition response, with variable slope (GraphPad Prism v5.03, GraphPad Software, San Diego, CA).

RWPE-1 cells = test: Percentage of intact cells (Hoechst 33342 / propidium iodide counting), RWPE-1; assay type: cell-based, human; conditions: RWPE-1, 48 h, 50 or 75 µM
caspase-9 [5] = test: Caspase-9 activity (Ac-LEHD-AFC cleavage) in PC-3 cell extracts; assay type: cell-based, human; conditions: PC-3, 24 h, 25–75 µM
Description: as §1

caspase-8 [6] = test: Caspase-8 activity (Ac-IETD-AFC cleavage) in LNCaP cell extracts; assay type: cell-based, human; conditions: 24 h, 25–75 µM
Description: as §1

caspase-3 [7] = test: Caspase-3 activity (Ac-DEVD-AFC cleavage) in LNCaP cell extracts; assay type: cell-based, human; conditions: 24 h, 25–75 µM
Description: as §1

LNCaP cells [8] = test: Western blot of apoptosis proteins, LNCaP; assay type: cell-based, human; conditions: 24 h, 25–75 µM
Description: (§5) Crude protein extracts (50 µg) were resolved by electrophoresis using 10% sodium dodecyl sulfate-polyacrylamide gels and then transferred to a PVDF Immobilon-P membrane (Bio-Rad, Mississauga, ON). Blots were blocked using 5% milk powder (Selection brand, Marché Jean-Talon, Montréal, QC) and incubated with antibodies as follows: 1:250 dilution for anti-caspase-3, 1:1000 for anti-cleaved PARP, 1:1000 for anti-Bcl-2, 1:1000 for anti-Bax, and 1:1000 for anti-Bid. Immunoreactive proteins were exposed to anti-rabbit horseradish peroxidise-conjugated secondary antibodies (Millipore) that were diluted 1:5000. Antigen-antibody complexes were detected using Immobilon ECL Western Chemiluminescent HRP Substrate (Millipore) and recorded with a Versadoc imaging system (Bio-Rad). Total protein content per well was determined using 1 × Amido Black staining solution (Sigma-Aldrich).

PC-3 cells [9] = test: Percentage of intact cells (Hoechst 33342 / propidium iodide counting), PC-3; assay type: cell-based, human; conditions: for Concentrations decreasing cell viability / number of intact cells: PC-3, 48 h, tested 10–500 µM; for Effect of caspase inhibitor on LCA-induced cell death: PC-3, 24 h co-exposure, 50 µM LCA + 10 µM inhibitor
Description: as §3, §4

PC-3 cells [10] = test: Western blot of apoptosis proteins, PC-3; assay type: cell-based, human; conditions: PC-3, 24 h
Description: as §5

caspase-8 [11] = test: Caspase-8 activity (Ac-IETD-AFC cleavage) in PC-3 cell extracts; assay type: cell-based, human; conditions: PC-3, 24 h, 25–75 µM
Description: as §1

PC-3 cells [12] = test: Mitochondrial membrane potential (TMRE), PC-3; assay type: cell-based, human; conditions: PC-3, 75 µM, as early as after 1 h
caspase-9 [13] = test: Caspase-9 activity (Ac-LEHD-AFC cleavage) in LNCaP cell extracts; assay type: cell-based, human; conditions: 24 h, 25–75 µM
Description: as §1

LNCaP cells [14] = test: DHT-stimulated LNCaP cell proliferation (real-time impedance, E-plates); assay type: cell-based, human
PC-3 cells [15] = tested on: PC-3 cells; design: method as in Choi et al., 2003; conditions: ref Choi et al., 2003; cited from earlier work

% of compound recovered, Cells ([2]; PC-3, 50 µM): 2.09 ± 0.05% | % of compound recovered, Medium ([2]; PC-3, 50 µM): 97.91 ± 0.05% | % of compound recovered, Cells ([2]; PC-3, 75 µM): 2.39 ± 1.93% | % of compound recovered, Medium ([2]; PC-3, 75 µM): 97.61 ± 1.93% | % of nominal concentration present in extracellular medium ([2]; PC-3 cultures after 24 h): ≤ 98% | % of nominal concentration present in extracellular medium ([3]; LNCaP cultures after 24 h): ≤ 98% | % of compound recovered, Cells ([3]; 25 µM): 2.72 ± 1.10% | % of compound recovered, Medium ([3]; 25 µM): 97.28 ± 1.10% | % of compound recovered, Cells ([3]; 50 µM): 5.85 ± 2.45% | % of compound recovered, Medium ([3]; 50 µM): 94.15 ± 2.45% | IC50 (LNCaP cells [4]; Homo sapiens, 48 h treatment, with 0.1 nM DHT, read-out: IC50 for decrease in number of intact cells): 40.5 ± 0.07 µM | IC50 (PC-3 cells [9]; Homo sapiens, PC-3, 48 h treatment, read-out: IC50 for decrease in number of intact cells): 74.9 ± 0.25 µM | IC50 (LNCaP cells [14]; Homo sapiens, LNCaP, co-treated with 0.1 nM DHT, 72 h, read-out: IC50 for inhibition of proliferation of androgen-stimulated cells): 8.5 µM
Molecule: C[C@H](CCC(=O)O)[C@H]1CC[C@H]2[C@@H]3CC[C@@H]4C[C@H](O)CC[C@]4(C)[C@H]3CC[C@]12C [LCA, Lithocholic acid]
Catalytic activity of caspase-3 (caspase-3 [1]): increased | Effect on viability of non-tumorigenic cells (RWPE-1 cells): without decreasing the viability | Caspase-9 activity (caspase-9 [5]): statistically significant increases | Levels of active caspase-8 (caspase-8 [6]): increased levels | Catalytic activity of caspase-3 (caspase-3 [7]): increased | Effect on pro-apoptotic proteins Bax and Bid (LNCaP cells [8]): cleavage | Levels of 89 kDa PARP fragment (LNCaP cells [8]): significantly elevated | Levels of cleaved, active 17 and 20 kDa caspase-3 subunits (LNCaP cells [8]): increased levels | Levels of 89 kDa PARP fragment elevated (PC-3 cells [10]): not in PC-3 cells | Bcl-2 levels (PC-3 cells [10]; 25–75 µM): decreased levels | Effect on pro-apoptotic proteins Bax and Bid (PC-3 cells [10]; 25–75 µM): cleavage | Levels of cleaved, active 17 and 20 kDa caspase-3 subunits (PC-3 cells [10]; 25–75 µM): increased levels | Levels of active caspase-8 (caspase-8 [11]): increased levels | Change in mitochondrial membrane potential (MMP) (PC-3 cells [12]): marked decrease | Caspase-9 activity (caspase-9 [13]): statistically significant increases | Concentrations that inhibit proliferation of AD prostate cancer cells (LNCaP cells [14]; well below those needed to induce apoptosis): 2.5 to 10 µM

% of compound recovered, Cells ([2]; PC-3, 50 µM): 2.44 ± 0.17% | % of compound recovered, Medium ([2]; PC-3, 50 µM): 97.56 ± 0.17% | % of compound recovered, Cells ([2]; PC-3, 75 µM): 2.43 ± 0.67% | % of compound recovered, Medium ([2]; PC-3, 75 µM): 97.57 ± 0.67% | % of compound recovered, Cells ([3]; 25 µM): 9.60 ± 3.86% | % of compound recovered, Medium ([3]; 25 µM): 90.40 ± 3.86% | % of compound recovered, Cells ([3]; 50 µM): 4.23 ± 0.10% | % of compound recovered, Medium ([3]; 50 µM): 95.77 ± 0.10%
Molecule: C[C@H](CCC(=O)O)[C@H]1CC[C@H]2[C@@H]3[C@@H](O)C[C@@H]4C[C@H](O)CC[C@]4(C)[C@H]3CC[C@]12C [UDCA, ursodeoxycholic acid, reference compound]
Concentrations decreasing cell viability / number of intact cells (LNCaP cells [4]): above 300 µM | Concentrations decreasing cell viability / number of intact cells (PC-3 cells [9]): above 300 µM | Concentrations that did not result in significant cell death (PC-3 cells [15]): > 100 µM

Molecule: z-DEVD-fmk
Effect of caspase inhibitor on LCA-induced cell death (LNCaP cells [4]): partially inhibited | Effect of caspase inhibitor on LCA-induced cell death (PC-3 cells [9]): partially inhibited

Molecule: C[C@H](CCC(=O)O)[C@H]1CC[C@H]2[C@@H]3[C@H](O)C[C@@H]4C[C@H](O)CC[C@]4(C)[C@H]3C[C@H](O)[C@]12C [CA, cholic acid]
Concentrations decreasing cell viability / number of intact cells (LNCaP cells [4]): > 500 µM | Concentrations decreasing cell viability / number of intact cells (PC-3 cells [9]): > 500 µM

Molecule: C[C@H](CCC(=O)O)[C@H]1CC[C@H]2[C@@H]3[C@H](O)C[C@@H]4C[C@H](O)CC[C@]4(C)[C@H]3CC[C@]12C [CDCA, chenodeoxycholic acid]
Concentrations decreasing cell viability / number of intact cells (LNCaP cells [4]): above 100 µM | Concentrations decreasing cell viability / number of intact cells (PC-3 cells [9]): above 100 µM | Concentrations that did not result in significant cell death (PC-3 cells [15]): > 100 µM

Molecule: C[C@H](CCC(=O)O)[C@H]1CC[C@H]2[C@@H]3CC[C@@H]4C[C@H](O)CC[C@]4(C)[C@H]3C[C@H](O)[C@]12C [DCA, deoxycholic acid]
Concentrations decreasing cell viability / number of intact cells (LNCaP cells [4]): above 100 µM | Concentrations decreasing cell viability / number of intact cells (PC-3 cells [9]): above 100 µM

Molecule: C[C@H](CCC(=O)O)[C@H]1CC[C@H]2[C@@H]3C[C@H](O)[C@@H]4C[C@H](O)CC[C@]4(C)[C@H]3CC[C@]12C [HDCA, hyodeoxycholic acid]
Concentrations decreasing cell viability / number of intact cells (LNCaP cells [4]): above 300 µM | Concentrations decreasing cell viability / number of intact cells (PC-3 cells [9]): above 300 µM

Molecule: z-IETD-fmk
Effect of caspase inhibitor on LCA-induced cell death (LNCaP cells [4]): alleviated | Effect of caspase inhibitor on LCA-induced cell death (PC-3 cells [9]): alleviated
